Measured values reported in ChEMBL document CHEMBL1772962, “In vitro and in vivo evaluation of 6-aminopyrazolyl-pyridine-3-carbonitriles as JAK2 kinase inhibitors” (Bioorg Med Chem Lett, 2011).
Values after ≈ are worked out from the molar mass of the structure shown. Active and inactive are the calls of the source. No cut-off for these calls is given here.

Assays:
[1] = Clearance in Han Wistar rat at 10 mg/kg, po and 3 mg/kg, iv; assay type: ADME, organism-based; conditions: in vivo
[2] = Half life in Han Wistar rat at 10 mg/kg, po and 3 mg/kg, iv; assay type: ADME, organism-based; conditions: in vivo
[3] = biological target: T1, Tyrosine-protein kinase JAK3 (Homo sapiens) (UniProt P52333); assay: Inhibition of TEL-fused JAK3-induced proliferative activity against mouse BA/F3 cells; assay type: cell-based; conditions: BaF3
T1 sequence (whole entry): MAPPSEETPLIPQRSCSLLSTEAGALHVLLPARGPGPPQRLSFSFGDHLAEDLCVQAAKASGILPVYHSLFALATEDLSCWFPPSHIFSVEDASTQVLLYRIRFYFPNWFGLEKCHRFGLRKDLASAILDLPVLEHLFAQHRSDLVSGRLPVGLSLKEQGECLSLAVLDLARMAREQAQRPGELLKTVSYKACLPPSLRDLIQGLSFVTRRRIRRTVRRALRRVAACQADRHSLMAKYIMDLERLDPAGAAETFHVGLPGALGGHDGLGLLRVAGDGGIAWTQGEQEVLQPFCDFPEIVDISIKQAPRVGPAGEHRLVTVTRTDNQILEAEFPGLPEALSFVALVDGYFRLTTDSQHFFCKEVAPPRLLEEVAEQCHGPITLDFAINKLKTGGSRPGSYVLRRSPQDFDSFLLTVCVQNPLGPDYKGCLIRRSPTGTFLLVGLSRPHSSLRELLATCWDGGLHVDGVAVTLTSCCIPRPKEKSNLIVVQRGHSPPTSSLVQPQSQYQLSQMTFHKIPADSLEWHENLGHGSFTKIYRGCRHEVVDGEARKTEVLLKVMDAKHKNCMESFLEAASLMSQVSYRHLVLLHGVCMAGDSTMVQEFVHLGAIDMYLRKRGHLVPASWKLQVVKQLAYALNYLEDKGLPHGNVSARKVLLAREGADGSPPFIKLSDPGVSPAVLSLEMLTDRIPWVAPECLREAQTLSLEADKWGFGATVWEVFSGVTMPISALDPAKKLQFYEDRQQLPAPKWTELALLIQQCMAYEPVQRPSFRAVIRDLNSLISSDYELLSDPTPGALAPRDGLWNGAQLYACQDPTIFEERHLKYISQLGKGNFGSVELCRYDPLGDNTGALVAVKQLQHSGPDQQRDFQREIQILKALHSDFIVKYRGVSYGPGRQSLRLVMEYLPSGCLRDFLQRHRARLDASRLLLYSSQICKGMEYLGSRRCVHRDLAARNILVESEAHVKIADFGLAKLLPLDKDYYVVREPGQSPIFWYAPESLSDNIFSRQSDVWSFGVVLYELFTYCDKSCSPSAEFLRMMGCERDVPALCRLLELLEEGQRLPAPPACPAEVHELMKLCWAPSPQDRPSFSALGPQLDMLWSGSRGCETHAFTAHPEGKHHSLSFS

[4] = Half life in dog; assay type: ADME, organism-based, Canis lupus familiaris; conditions: in vivo
[5] = biological target: T2, Tyrosine-protein kinase JAK3 (Homo sapiens, UniProt P52333); assay: Inhibition of human JAK3
T2 sequence (P52333 whole entry): T1 sequence (whole entry)

[6] = Plasma concentration in NCr mouse tansplanted with TEL-JAK2 expressing mouse BA/F3 cells at 10 mg/kg, po after 6 hrs; assay type: ADME, organism-based, BaF3; design: dose 10 mg/kg, route oral
[7] = biological target: Receptor-type tyrosine-protein kinase FLT3 (Homo sapiens, UniProt P36888, D835Y); assay: Inhibition of human FLT3 D835Y mutant
[8] = tested on: Mus musculus; assay: Inhibition of STAT5 phosphorylation in NCr mouse tansplanted with TEL-JAK2 expressing mouse BA/F3 cells at 10 mg/kg, po upto 2 hrs; assay type: functional, organism-based; design: dose 10 mg/kg; conditions: BaF3
[9] = Aqueous solubility of compound; assay type: physicochemical
[10] = Plasma concentration in NCr mouse tansplanted with TEL-JAK2 expressing mouse BA/F3 cells at 10 mg/kg, po after 2 hrs; assay type: ADME, organism-based, BaF3; design: dose 10 mg/kg, route oral
[11] = tested on: Mus musculus; assay: Inhibition of STAT5 phosphorylation in NCr mouse tansplanted with TEL-JAK2 expressing mouse BA/F3 cells at 10 mg/kg, po measured at 6 hrs; assay type: functional; conditions: BaF3, 6 h
[12] = tested on: Mus musculus; assay: Inhibition of STAT5 phosphorylation in NCr mouse tansplanted with TEL-JAK2 expressing mouse BA/F3 cells at 5 mg/kg, po upto 2 hrs; assay type: functional, organism-based; design: dose 5 mg/kg; conditions: BaF3
[13] = Fraction unbound in human plasma; assay type: ADME, cell-free
[14] = Oral bioavailability in Han Wistar rat at 10 mg/kg; assay type: ADME, organism-based; conditions: in vivo
[15] = biological target: T3, High affinity nerve growth factor receptor (Homo sapiens, UniProt P04629); assay: Inhibition of human truncated TrkA in human MCF10a cells by time-resolved fluorimetry; assay type: cell-based
Target sequence in this assay (P04629 33-796 limits assumed): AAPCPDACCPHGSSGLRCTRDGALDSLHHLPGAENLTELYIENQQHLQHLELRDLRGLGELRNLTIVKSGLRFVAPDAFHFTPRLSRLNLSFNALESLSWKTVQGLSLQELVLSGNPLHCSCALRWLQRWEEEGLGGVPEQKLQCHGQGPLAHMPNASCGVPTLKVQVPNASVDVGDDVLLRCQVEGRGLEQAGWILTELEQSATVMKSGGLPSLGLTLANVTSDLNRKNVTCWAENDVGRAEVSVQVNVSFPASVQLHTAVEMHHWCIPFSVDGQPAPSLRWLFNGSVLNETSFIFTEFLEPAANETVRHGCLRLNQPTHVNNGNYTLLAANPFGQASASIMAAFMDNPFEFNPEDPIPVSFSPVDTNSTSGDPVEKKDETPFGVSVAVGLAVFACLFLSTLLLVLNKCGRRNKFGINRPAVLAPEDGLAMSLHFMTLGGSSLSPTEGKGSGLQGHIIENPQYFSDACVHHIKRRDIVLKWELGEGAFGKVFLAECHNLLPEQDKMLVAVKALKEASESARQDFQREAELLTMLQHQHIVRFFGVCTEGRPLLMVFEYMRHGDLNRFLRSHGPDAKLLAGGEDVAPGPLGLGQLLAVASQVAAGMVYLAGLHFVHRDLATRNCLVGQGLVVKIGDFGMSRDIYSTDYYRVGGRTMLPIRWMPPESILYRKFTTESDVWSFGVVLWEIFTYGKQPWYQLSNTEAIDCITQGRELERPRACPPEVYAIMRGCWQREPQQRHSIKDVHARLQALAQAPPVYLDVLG

[16] = biological target: T2, Tyrosine-protein kinase JAK3; assay: Inhibition of JAK3 after 60 min
[17] = tested on: Mus musculus; assay: Inhibition of STAT5 phosphorylation in NCr mouse tansplanted with TEL-JAK2 expressing mouse BA/F3 cells at 2.5 mg/kg, po upto 2 hrs; assay type: functional, organism-based; design: dose 2.5 mg/kg; conditions: BaF3
[18] = biological target: T4, Tyrosine-protein kinase JAK2 (Homo sapiens, UniProt O60674); assay: Inhibition of TEL-fused JAK2-induced proliferation of mouse BA/F3 cells; assay type: cell-based; conditions: BaF3
T4 sequence (O60674 whole entry, the tested form may be a part): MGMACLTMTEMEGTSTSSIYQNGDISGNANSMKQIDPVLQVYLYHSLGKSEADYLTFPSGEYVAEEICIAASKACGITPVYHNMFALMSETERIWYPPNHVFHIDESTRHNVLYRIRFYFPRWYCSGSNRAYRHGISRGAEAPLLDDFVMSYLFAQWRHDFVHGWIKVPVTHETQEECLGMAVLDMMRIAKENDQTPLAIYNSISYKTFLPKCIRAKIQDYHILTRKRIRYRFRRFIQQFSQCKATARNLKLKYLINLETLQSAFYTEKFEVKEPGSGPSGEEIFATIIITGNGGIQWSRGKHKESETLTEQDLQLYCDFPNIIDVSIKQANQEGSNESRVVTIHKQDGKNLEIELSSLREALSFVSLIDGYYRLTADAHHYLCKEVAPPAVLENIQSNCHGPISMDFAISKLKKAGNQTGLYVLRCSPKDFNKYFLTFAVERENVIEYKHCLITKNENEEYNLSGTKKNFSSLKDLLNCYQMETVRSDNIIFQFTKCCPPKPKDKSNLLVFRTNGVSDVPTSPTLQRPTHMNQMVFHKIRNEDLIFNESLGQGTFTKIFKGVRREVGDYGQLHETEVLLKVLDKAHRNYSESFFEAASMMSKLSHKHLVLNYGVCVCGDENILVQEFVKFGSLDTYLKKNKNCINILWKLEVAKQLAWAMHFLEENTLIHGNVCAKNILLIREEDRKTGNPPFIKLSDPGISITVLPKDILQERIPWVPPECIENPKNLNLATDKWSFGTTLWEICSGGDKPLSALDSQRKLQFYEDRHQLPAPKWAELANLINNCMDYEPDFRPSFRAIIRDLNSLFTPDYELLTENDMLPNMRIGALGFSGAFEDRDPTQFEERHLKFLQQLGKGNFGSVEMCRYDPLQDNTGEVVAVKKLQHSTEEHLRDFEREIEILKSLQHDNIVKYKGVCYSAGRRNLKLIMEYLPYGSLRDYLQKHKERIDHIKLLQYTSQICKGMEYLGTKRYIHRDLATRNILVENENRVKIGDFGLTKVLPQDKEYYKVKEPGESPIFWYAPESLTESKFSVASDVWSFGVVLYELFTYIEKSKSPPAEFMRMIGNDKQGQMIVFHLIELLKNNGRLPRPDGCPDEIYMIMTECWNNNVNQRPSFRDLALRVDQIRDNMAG

[19] = Volume of distribution at steady state in Han Wistar rat at 10 mg/kg, po and 3 mg/kg, iv; assay type: ADME, organism-based; conditions: in vivo, read-out: Vdss
[20] = Oral bioavailability in dog; assay type: ADME, organism-based, Canis lupus familiaris; conditions: in vivo
[21] = biological target: T5, Muscle, skeletal receptor tyrosine-protein kinase (Homo sapiens, UniProt O15146); assay: Inhibition of human MuSk
T5 sequence (O15146 whole entry): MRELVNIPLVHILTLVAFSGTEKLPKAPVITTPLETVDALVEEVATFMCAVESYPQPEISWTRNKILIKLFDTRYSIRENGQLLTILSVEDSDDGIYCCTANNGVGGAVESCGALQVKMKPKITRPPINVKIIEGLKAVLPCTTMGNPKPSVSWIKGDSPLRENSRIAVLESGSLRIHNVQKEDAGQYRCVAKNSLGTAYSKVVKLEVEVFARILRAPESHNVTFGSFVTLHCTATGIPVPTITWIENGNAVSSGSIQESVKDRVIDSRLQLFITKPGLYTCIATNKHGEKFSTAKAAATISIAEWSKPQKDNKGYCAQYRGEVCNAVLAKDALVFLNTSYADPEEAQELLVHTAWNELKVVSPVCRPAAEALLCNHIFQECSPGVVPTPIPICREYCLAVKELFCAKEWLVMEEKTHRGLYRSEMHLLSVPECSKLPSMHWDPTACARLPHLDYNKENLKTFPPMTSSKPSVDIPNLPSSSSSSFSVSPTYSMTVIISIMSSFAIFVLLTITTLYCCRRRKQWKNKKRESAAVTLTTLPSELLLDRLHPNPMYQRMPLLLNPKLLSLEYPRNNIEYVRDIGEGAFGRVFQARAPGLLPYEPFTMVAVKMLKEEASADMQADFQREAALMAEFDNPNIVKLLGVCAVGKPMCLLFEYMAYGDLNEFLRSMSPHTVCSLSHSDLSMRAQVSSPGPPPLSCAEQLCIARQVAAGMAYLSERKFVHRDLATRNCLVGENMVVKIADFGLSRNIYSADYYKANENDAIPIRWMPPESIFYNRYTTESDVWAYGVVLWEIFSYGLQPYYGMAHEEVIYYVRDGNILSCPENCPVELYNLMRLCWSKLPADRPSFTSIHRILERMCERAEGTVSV

[22] = biological target: T6, Ephrin type-B receptor 2 (Homo sapiens, UniProt P29323); assay: Inhibition of human EphB2
T6 sequence (P29323 whole entry): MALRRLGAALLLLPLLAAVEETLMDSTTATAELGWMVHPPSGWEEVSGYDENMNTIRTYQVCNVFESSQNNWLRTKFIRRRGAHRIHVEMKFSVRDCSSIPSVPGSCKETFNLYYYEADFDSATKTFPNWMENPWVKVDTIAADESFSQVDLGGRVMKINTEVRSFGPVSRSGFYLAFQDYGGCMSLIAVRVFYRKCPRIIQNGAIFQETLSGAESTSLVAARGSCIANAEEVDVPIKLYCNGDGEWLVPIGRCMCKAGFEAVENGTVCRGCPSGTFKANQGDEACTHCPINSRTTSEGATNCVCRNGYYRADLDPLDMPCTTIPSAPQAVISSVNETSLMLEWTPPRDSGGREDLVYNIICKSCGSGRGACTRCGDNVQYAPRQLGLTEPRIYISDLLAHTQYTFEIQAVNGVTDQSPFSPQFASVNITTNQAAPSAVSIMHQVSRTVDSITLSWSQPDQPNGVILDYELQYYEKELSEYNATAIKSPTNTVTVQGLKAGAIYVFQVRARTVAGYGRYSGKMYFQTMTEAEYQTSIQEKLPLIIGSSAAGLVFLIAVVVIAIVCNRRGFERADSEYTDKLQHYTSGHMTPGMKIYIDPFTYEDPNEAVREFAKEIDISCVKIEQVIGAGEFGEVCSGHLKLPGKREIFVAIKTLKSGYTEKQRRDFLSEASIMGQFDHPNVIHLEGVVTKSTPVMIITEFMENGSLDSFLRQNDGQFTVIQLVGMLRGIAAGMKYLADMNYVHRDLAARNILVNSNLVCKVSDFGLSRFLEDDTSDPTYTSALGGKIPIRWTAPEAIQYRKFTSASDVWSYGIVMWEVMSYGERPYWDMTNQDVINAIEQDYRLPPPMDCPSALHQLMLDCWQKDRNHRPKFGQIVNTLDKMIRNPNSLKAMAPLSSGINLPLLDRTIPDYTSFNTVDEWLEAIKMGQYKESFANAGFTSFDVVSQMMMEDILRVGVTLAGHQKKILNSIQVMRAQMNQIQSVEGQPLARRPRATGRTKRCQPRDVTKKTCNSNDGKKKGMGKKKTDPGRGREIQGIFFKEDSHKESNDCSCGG

[23] = biological target: T4, Tyrosine-protein kinase JAK2; assay: Inhibition of human JAK2
[24] = Clearance in dog; assay type: ADME, organism-based, Canis lupus familiaris; conditions: in vivo
[25] = biological target: Tyrosine-protein kinase Lck (Homo sapiens, UniProt P06239); assay: Inhibition of human Lck
Sequence of Tyrosine-protein kinase Lck (P06239 whole entry): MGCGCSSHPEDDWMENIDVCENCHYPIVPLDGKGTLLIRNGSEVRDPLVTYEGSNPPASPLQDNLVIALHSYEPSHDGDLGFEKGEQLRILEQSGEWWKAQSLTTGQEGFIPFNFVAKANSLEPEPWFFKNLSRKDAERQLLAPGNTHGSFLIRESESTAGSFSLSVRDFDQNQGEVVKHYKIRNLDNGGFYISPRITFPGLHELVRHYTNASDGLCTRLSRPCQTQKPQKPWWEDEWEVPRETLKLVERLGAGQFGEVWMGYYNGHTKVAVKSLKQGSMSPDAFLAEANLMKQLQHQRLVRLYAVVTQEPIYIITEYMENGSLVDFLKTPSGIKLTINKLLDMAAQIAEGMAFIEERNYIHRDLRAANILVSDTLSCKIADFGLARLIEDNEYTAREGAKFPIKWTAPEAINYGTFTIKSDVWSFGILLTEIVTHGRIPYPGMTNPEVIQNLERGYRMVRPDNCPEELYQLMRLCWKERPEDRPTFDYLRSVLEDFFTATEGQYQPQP

[26] = Free drug level in plasma of NCr mouse tansplanted with TEL-JAK2 expressing mouse BA/F3 cells at 10 mg/kg, po after 6 hrs; assay type: ADME, organism-based, BaF3; design: dose 10 mg/kg, route oral; conditions: in vivo
[27] = tested on: Mus musculus; assay: Inhibition of STAT5 phosphorylation in NCr mouse tansplanted with TEL-JAK2 expressing mouse BA/F3 cells at 5 mg/kg, po measured at 6 hrs; assay type: functional; conditions: BaF3, 6 h
[28] = biological target: T3, High affinity nerve growth factor receptor; assay: Inhibition of human TRKA
Target sequence in this assay (P04629 whole entry, the tested form may be a part): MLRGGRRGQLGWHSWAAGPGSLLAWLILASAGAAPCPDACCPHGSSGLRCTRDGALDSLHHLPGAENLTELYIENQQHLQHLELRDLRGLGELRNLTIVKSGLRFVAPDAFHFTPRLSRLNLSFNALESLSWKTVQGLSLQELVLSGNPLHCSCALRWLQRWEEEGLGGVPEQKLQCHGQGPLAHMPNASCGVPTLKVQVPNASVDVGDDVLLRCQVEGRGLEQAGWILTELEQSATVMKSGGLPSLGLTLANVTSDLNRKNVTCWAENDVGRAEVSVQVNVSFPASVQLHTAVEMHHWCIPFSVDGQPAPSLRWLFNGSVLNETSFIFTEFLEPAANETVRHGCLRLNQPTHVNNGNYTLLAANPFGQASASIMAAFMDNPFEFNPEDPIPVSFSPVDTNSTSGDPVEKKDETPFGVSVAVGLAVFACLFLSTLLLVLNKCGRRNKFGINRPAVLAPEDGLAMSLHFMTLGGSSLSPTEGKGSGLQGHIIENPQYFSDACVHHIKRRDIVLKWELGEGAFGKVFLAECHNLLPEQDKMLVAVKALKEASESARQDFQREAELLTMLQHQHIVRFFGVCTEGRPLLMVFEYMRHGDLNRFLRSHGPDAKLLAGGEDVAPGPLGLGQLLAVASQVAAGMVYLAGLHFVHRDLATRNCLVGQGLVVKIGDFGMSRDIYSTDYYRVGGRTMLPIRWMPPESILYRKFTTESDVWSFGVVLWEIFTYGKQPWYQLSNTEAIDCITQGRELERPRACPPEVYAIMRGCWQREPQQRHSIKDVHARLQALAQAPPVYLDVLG

[29] = Intrinsic clearance in Han Wistar rat microsomes at 10 mg/kg, po and 3 mg/kg, iv; assay type: ADME, Microsome
[30] = biological target: T4, Tyrosine-protein kinase JAK2; assay: Inhibition of JAK2 after 60 min
[31] = Growth inhibition of human SET2 cells expressing JAK2 V617F mutant after 48 hrs by alamar blue assay; assay type: functional; conditions: SET-2, 48 h

| Compound | clearance [1] [mL/min/kg] | half-life [2] [min] | GI50 [3] [nM] | solubility [9] [µM] | bioavailability [14] [%] | IC50 [16] [nM] | GI50 [18] [nM] | Vd [19] [L/kg] | microsomal CLint [29] [µL/min/mg] | IC50 [30] [nM] | further results |
| --- | --- | --- | --- | --- | --- | --- | --- | --- | --- | --- | --- |
| Cc1cc(Nc2nc(N[C@@H](C)c3ccc(F)cn3)c(C#N)cc2F)n[nH]1 | 4.8 | 132 | 1300 | 303 (≈ 108 µg/mL) | 39 | 7 | 36 | 0.84 | 5 | < 3 | half-life [4]: 216 min; IC50 [5]: 15 nM; concentration at 6 h [6]: 328 ng/mL; IC50 [7]: 82 nM; inhibition [8]: Active; concentration at 2 h [10]: 1100 ng/mL; inhibition in vivo at 10 mg/kg [11]: 54%; inhibition [12]: Active; fraction unbound [13]: 0.053; IC50 [15]: 0.276 µM; inhibition [17]: Active; bioavailability [20]: 100%; IC50 [21]: 224 nM; IC50 [22]: > 10 µM; IC50 [23]: < 1 nM; clearance [24]: 7.4 mL/min/kg; IC50 [25]: 215 nM; Cp(f) [26]: 0.049 µM; inhibition in vivo at 5 mg/kg [27]: 54%; IC50 [28]: 3 nM |
| C[C@H](Nc1nc(Nc2cc(C3CC3)[nH]n2)c(F)cc1C#N)c1ccc(F)cc1 | – | – | 1000 | – | – | 183 | 170 | – | – | 3 | – |
| Cc1cc(Nc2nc(N[C@@H](C)c3ccc(F)cc3)c(C#N)cc2F)n[nH]1 | 7.5 | 342 | 350 | 13 (≈ 4.61 µg/mL) | 44 | 9 | 24 | 2.6 | 17 | < 3 | GI50 [31]: 33 nM |
| Cc1cc(Nc2nc(N[C@@H](C)c3ccc(F)cn3)c(C#N)cc2Cl)n[nH]1 | 2.3 | 162 | 430 | 100 (≈ 37.2 µg/mL) | 47 | 21 | 40 | 0.52 | 5 | < 3 | – |
| CC(C)Oc1cc(Nc2nc(N[C@@H](C)c3ccc(F)cc3)c(C#N)cc2F)n[nH]1 | – | – | – | – | – | 1740 | – | – | – | 688 | – |
